These results are taken from EP0270316A2, “Topical compositions comprising 1-substituted imidazoles and NSAIDs for treatment of acne” (PFIZER INC., priority 1986, dated 1988).

Each structure is given as a SMILES string. Converted amounts (≈) assume the structure as drawn.

For one series, the system named is P. acnes. Briefly: microbe, parasite or virus in culture. Particulars: Cutibacterium acnes, read-out: average minimum inhibitory concentration (MIC).
For series [1] the following is noted: human skin treated with radiolabeled tioconazole; frozen section autoradiography. An excerpt:
This property is readily measurable by methods known to those skilled in the art such as, for example, skin layer analysis which measures the amount of radiolabeled drug, e.g. tioconazole, in human skin treated with compositions containing the drug. [[…] et al., Brit. J. Dermatol. 115, Suppl. 31, 36-40 (1986)].

For `Clc1ccc(C(Cn2ccnc2)OCc2ccsc2Cl)c(Cl)c1` (centres unmarked) [Tioconazole, 1-[2-[(2-chloro-3-thienyl)methoxy]-2-(2,4-dichlorophenyl)ethyl]-1H-imidazole], the MIC in the series on P. acnes came out at 5 µg/mL (≈ 12.9 µM). Also, the localization in skin entry in series [1] is recorded as “localized in the sebaceous follicle”.
